Assay results reported in ChEMBL document CHEMBL5137025, “Tuberculosis Drug Discovery: Challenges and New Horizons” (J Med Chem, 2022).
Converted amounts (≈) assume the structure as drawn.

Tested on: Mycobacterium tuberculosis variant bovis
Assay: Antibacterial activity against Mycobacterium bovis BCG assessed as inhibition of bacterial growth incubated for 4 to 7 days
Type: functional
Conditions: time 4-7 day

SMILES: Nc1nc(N)c(N=O)c(OCC2CCCCC2)n1
- MIC99: 1.6 µM (≈ 0.402 µg/mL)
